Measured values reported in US9526699B2, “Biodegradable and thermosensitive poly(organophosphazene) hydrogel, preparation method thereof and use thereof” (KIST, priority 2006, dated 2016).

What was measured:
[1] = tested on: Cells of stomach cancer, SNU-601; assay: In vivo anti-cancer activity of the poly(organophosphazene) hydrogel containing paclitaxel; design: species or system nude mouse; conditions: 60 mg/kg, day 10 after administration, ten mice per group
Description: A nude mouse (OrientalBio, Balb/C, female of 5-weeks old, 20 g) was used as an animal model for animal experimentation for an in vivo test. Cells of stomach cancer, SNU-601 (1×10^7 cells, 0.2 ml, Korean Cell Line Bank), were injected into the dorsum of the mouse. […] 0.2 ml of the solution was injected into the cancer cells, and the change in the size of the cells was measured.
Each test was conducted for ten (10) mice for each of the control groups and the experimental groups.

[2] = target: T1, albumin (Bovin Serum Albumin; BSA) (Bos taurus, UniProt P02769); assay: Gel electrophoresis for ionic bond between additives and protein drug; assay type: binding; conditions: additive at various concentrations in 0.01% albumin solution
T1 construct: purchased Wako chemical
Description: Each of them was added to 0.01% albumin solution (Bovin Serum Albumin; BSA, Wako chemical) at various concentrations and sufficiently stirred. After holding for 20 minutes, an electrophoresis for each of the obtained solutions was conducted through polyacrylamide gel.

T1 sequence (P02769 25-607): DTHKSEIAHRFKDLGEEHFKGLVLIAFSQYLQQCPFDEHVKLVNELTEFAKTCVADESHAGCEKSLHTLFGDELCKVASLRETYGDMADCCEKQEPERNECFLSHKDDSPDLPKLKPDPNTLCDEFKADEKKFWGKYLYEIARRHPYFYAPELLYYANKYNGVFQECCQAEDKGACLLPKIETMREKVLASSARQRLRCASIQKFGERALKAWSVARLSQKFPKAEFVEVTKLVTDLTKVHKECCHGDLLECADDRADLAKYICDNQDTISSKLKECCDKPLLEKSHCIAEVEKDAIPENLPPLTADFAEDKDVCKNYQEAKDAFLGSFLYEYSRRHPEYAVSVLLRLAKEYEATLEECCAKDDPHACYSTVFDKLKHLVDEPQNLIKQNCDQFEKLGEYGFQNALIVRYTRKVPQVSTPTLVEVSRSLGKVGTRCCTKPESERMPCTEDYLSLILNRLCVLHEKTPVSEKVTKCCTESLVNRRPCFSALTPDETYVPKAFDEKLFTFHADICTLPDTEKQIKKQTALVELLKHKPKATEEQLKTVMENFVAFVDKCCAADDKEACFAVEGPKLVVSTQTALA

Compound	mice died due to toxicity [1] [mice]	development property in polyacrylamide gel (ionic bond with albumin) [2]
CC(=O)O[C@H]1C(=O)[C@@]2(C)[C@H]([C@H](OC(=O)c3ccccc3)[C@]3(O)C[C@H](OC(=O)[C@H](O)[C@@H](NC(=O)c4ccccc4)c4ccccc4)C(C)=C1C3(C)C)[C@]1(OC(C)=O)CO[C@@H]1C[C@@H]2O [Paclitaxel, paclitaxel]	8	
protamine		worse development property of the gel as the concentration of the additive is higher
